# Read-outs that look alike come from different tables or passages of the source.
# Assays:
# Test in all cases: microbe, parasite or virus in culture
# Design in all cases: species or system Enterobacteriaceae strains
# K. pneumoniae IMP-8 [1] = details: Klebsiella pneumoniae, IMP8, read-out: MIC
# P. rettgeri NDM-1 [2] = details: Providencia rettgeri, NDM1, read-out: MIC
# [3] = system: K. pneumoniae ATCC BAA 1706; details: Klebsiella pneumoniae, BAA1706, read-out: MIC
# E. coli NDM-1 [4] = details: Escherichia coli, NDM1, read-out: MIC
# E. cloacae IMP-8 [5] = details: Enterobacter cloacae, IMP8, read-out: MIC
# E. cloacae IMP-1 [6] = details: Enterobacter cloacae, IMP1, read-out: MIC
# P. stuartii NDM-1 [7] = details: Providencia stuartii, NDM1, read-out: MIC
# E. coli IMP-1 [8] = details: Escherichia coli, IMP1, read-out: MIC
# K. pneumoniae VIM-1 [9] = details: Klebsiella pneumoniae, VIM1, read-out: MIC
# K. pneumoniae OXA-48 [10] = details: Klebsiella pneumoniae, OXA48, read-out: MIC
# E. cloacae NDM-1 [11] = details: Enterobacter cloacae, NDM1, read-out: MIC
# E. coli VIM-2 [12] = details: Escherichia coli, VIM2, read-out: MIC
# E. coli NDM-4 [13] = details: Escherichia coli, NDM4, read-out: MIC
# C. freundii NDM-1 [14] = details: Citrobacter freundii, NDM1, read-out: MIC
# E. cloacae VIM-1 [15] = details: Enterobacter cloacae, VIM1, read-out: MIC
# E. coli VIM-1 [16] = details: Escherichia coli, VIM1, read-out: MIC
# K. pneumoniae IMP-1 [17] = details: Klebsiella pneumoniae, IMP1, read-out: MIC
# E. coli ATCC 25922 [18] = details: Escherichia coli, ATCC25922, read-out: MIC
# K. pneumoniae IMP-8 [19] = details: Klebsiella pneumoniae, IMP8, read-out: MIC; remark: listed apart in the source
# E. coli NDM-1 [20] = details: Escherichia coli, NDM1, read-out: MIC; remark: listed apart in the source
# E. coli NDM-4 [21] = details: Escherichia coli, NDM4, read-out: MIC; remark: listed apart in the source
# E. cloacae IMP-1 [22] = details: Enterobacter cloacae, IMP1, read-out: MIC; remark: listed apart in the source
# E. cloacae NDM-1 [23] = details: Enterobacter cloacae, NDM1, read-out: MIC; remark: listed apart in the source
# E. coli VIM-2 [24] = details: Escherichia coli, VIM2, read-out: MIC; remark: listed apart in the source
# C. freundii NDM-1 [25] = details: Citrobacter freundii, NDM1, read-out: MIC; remark: listed apart in the source
# E. coli VIM-1 [26] = details: Escherichia coli, VIM1, read-out: MIC; remark: listed apart in the source
# K. pneumoniae VIM-1 [27] = details: Klebsiella pneumoniae, VIM1, read-out: MIC; remark: listed apart in the source
# P. stuartii NDM-1 [28] = details: Providencia stuartii, NDM1, read-out: MIC; remark: listed apart in the source
# E. cloacae IMP-8 [29] = details: Enterobacter cloacae, IMP8, read-out: MIC; remark: listed apart in the source
# K. pneumoniae IMP-1 [30] = details: Klebsiella pneumoniae, IMP1, read-out: MIC; remark: listed apart in the source
# E. coli IMP-1 [31] = details: Escherichia coli, IMP1, read-out: MIC; remark: listed apart in the source
# P. rettgeri NDM-1 [32] = details: Providencia rettgeri, NDM1, read-out: MIC; remark: listed apart in the source
# E. coli ATCC 25922 [33] = details: Escherichia coli, ATCC25922, read-out: MIC; remark: listed apart in the source
# [34] = system: K. pneumoniae ATCC BAA 1706; details: Klebsiella pneumoniae, BAA1706, read-out: MIC; remark: listed apart in the source
# K. pneumoniae OXA-48 [35] = details: Klebsiella pneumoniae, OXA48, read-out: MIC; remark: listed apart in the source
# E. cloacae VIM-1 [36] = details: Enterobacter cloacae, VIM1, read-out: MIC; remark: listed apart in the source
smiles,measurement,setting,value
"C[C@@H](O)[C@H]1C(=O)N2C(C(=O)O)=C(S[C@@H]3CN[C@H](C(=O)N(C)C)C3)[C@H](C)[C@H]12 [MEM, meropenem]",MIC,K. pneumoniae IMP-8 [1],16 µg/mL
same,MIC,P. rettgeri NDM-1 [2],64 µg/mL
same,MIC,[3],0.5 µg/mL
same,MIC,E. coli NDM-1 [4],128 µg/mL
same,MIC,E. cloacae IMP-8 [5],8 µg/mL
same,MIC,E. cloacae IMP-1 [6],32 µg/mL
same,MIC,P. stuartii NDM-1 [7],16 µg/mL
same,MIC,E. coli IMP-1 [8],16 µg/mL
same,MIC,K. pneumoniae VIM-1 [9],32 µg/mL
same,MIC,K. pneumoniae OXA-48 [10],8 µg/mL
same,MIC,E. cloacae NDM-1 [11],16 µg/mL
same,MIC,E. coli VIM-2 [12],8 µg/mL
same,MIC,E. coli NDM-4 [13],128 µg/mL
same,MIC,C. freundii NDM-1 [14],8 µg/mL
same,MIC,E. cloacae VIM-1 [15],8 µg/mL
same,MIC,E. coli VIM-1 [16],32 µg/mL
same,MIC,K. pneumoniae IMP-1 [17],32 µg/mL
same,MIC,E. coli ATCC 25922 [18],0.03 µg/mL
"C1CNCCNCCN1 [compound 1, 1,4,7-triazacyclononane]",MIC,K. pneumoniae IMP-8 [19],1020 µg/mL
same,MIC,E. coli NDM-1 [20],1020 µg/mL
same,MIC,E. coli NDM-4 [21],1020 µg/mL
same,MIC,E. cloacae IMP-1 [22],512 µg/mL
same,MIC,E. cloacae NDM-1 [23],> 1020 µg/mL
same,MIC,E. coli VIM-2 [24],128 µg/mL
same,MIC,C. freundii NDM-1 [25],1020 µg/mL
same,MIC,E. coli VIM-1 [26],1020 µg/mL
same,MIC,K. pneumoniae VIM-1 [27],512 µg/mL
same,MIC,P. stuartii NDM-1 [28],> 1020 µg/mL
same,MIC,E. cloacae IMP-8 [29],512 µg/mL
same,MIC,K. pneumoniae IMP-1 [30],512 µg/mL
same,MIC,E. coli IMP-1 [31],512 µg/mL
same,MIC,P. rettgeri NDM-1 [32],> 1020 µg/mL
same,MIC,E. coli ATCC 25922 [33],1020 µg/mL
same,MIC,[34],1020 µg/mL
same,MIC,K. pneumoniae OXA-48 [35],128 µg/mL
same,MIC,E. cloacae VIM-1 [36],128 µg/mL

# Reference: paper doi:10.1101/366146v2 (biorxiv, 2018)
